According to patent publication US12247973B2, “Plasma membrane citrate transporter for use in the diagnosis and treatment of cancer” (Universitätsklinikum Regensburg, priority 2014, dated 2025):

Key:
[1] = tested on: PC-3M cells; assay: Flow cytometry-based cell division (cell cycle) study; design: species or system human; details: PC-3M cells cultured with supplemented citrate, normoxic
Description: (§1) FIG. 3. Glycolytic activity and amino acid release. (A) Amount of glucose consumed and lactate released by PC-3M cells grown for 24 h with or without 200 μM citrate. (**P<0.01; n=5). (B) Concentrations of glycine, alanine and proline in the supernatants of PC-3M cells grown for 72 h with or without 200 μM citrate. (*P<0.05, **P<0.01; n=5). (C) Influence of extracellular citrate on the intracellular ratio of 13C-labeled to unlabelled free amino acids. PC-3M cells were incubated for 72h in media supplemented with [U-^13C]glucose with or without 200 μM unlabelled citrate, the ratio of ^13C incorporation into amino acids is shown. (*P<0.05, ***P<0.005; n=5). (D) Cell division in the presence or absence of extracellular citrate under normoxic conditions determined by flow cytometry. (*P<0.05, **P<0.01; n=6).
An increase in the synthesis of amino acids in the presence of extracellular citrate prompted cell division testing. […] Therefore, metabolic changes induced by extracellular citrate affect metabolism to an extent that impacts cellular processes such as cell division.
Studies were performed as before^28. […] ROS production was detected with dihydrorhodamine 123 (Molecular Probes, Darmstadt, Germany). […] At least 10,000 live cells were measured per sample. Dead cells were detected using the Aqua Live/Dead cell kit (Molecular Probes).

[2] = tested on: PC-3M cells; assay: Glucose uptake and lactate release in media of PC-3M cells; assay type: cell-based, human; details: 200 μM citrate, 24 h
Description: as §1
To assess glycolysis the inventors measured (unlabelled) glucose uptake and lactate release in the media from PC-3M cells incubated±200 μM citrate for 24 h. […] This effect is most likely related to increased conversion of pyruvate to lactate because of decreased mitochondrial citrate synthesis.
Metabolites were extracted with 80% methanol and measured by HPLC-ESI-MS/MS on an AB SCI EX (Framingham, MA, USA) Q TRAP™ 4000 system. […] Lactate and glucose in the media were measured as previously described^27.

[3] = tested on: human prostate cancer PC-3M cells; assay: Survival of PC-3M cells under stress conditions, MTT assay; assay type: cell-based; details: serum-free media with 0.5 g/L glucose
Description: FIG. 16. Metastatic human prostate cancer PC-3M cells were grown in RPMI media supplemented with 0.5 g/L glucose and glutamine. Their survival rate was measured after 48 h and 72 h using an MTT assay. The control depicts survival of the cells with no extracellular citrate or glutamate.
4. Effect of gluconate on the survival of human prostate cancer PC-3M cells (16)

[4] = tested on: normal PNT2-C2 cells; assay: ROS synthesis by flow cytometry in PNT2-C2 cells; assay type: cell-based, human; details: extracellular citrate
Description: FIG. 2. Impact of extracellular citrate on Krebs cycle activity. PC-3M cells were incubated for 72 h with 25 mM [U-13C]glucose with or without the addition of 200 μM unlabelled citrate. (A) Differences in the ratio of uniform ^13C incorporation into fully labelled Krebs cycle intermediates. (*P<0.05, ***P<0.005; n=5). (B) Differences in ROS synthesis determined by flow cytometry for PC-3M (left) and PNT2-C2 (right) cells. Cells were incubated in media containing FCS, dialysed FCS+200 μM citrate, or dialysed serum only. Shown are geometric means±SD. (*P<0.05; n=6-9). […] Changes in mCiC in mitochondrial protein derived from PNT2-C2 cells was also determined under normoxic conditions (right). […]
Changes in Krebs cycle activity were also determined by measuring the absolute amounts determined as a normalized response of the studied substrates (unlabelled and total ^13C depicting all substrates with any number of labelled carbons) in the presence or absence of unlabelled extracellular citrate (FIG. 7). […] Using flow cytometry the inventors also determined that ROS levels in PC-3M cells grown with extracellular citrate were decreases by about 20%, compared to cells grown in citrate-depleted dialysed serum (FIG. 2B); use of normal non-dialysed serum also reduces ROS levels. […]
Studies were performed as before^28. […] ROS production was detected with dihydrorhodamine 123 (Molecular Probes, Darmstadt, Germany). […]

[5] = tested on: benign PNT2-C2 cells; assay: Patch clamp, citrate-induced current in PNT2-C2 cells; assay type: cell-based, human; details: 10 mM gluconate, 10 mM citrate
Description: (§2) FIG. 14. Patch clamp recordings were performed on PC-3M (A) and PNT2-C2 (B) cells. […] Importantly, reduction in citrate-induced current in the presence of gluconate was irreversible. […] The effect of reduced citrate-induced current was greater in the case of PC-3M cells versus PNT2-C2 cells.
(§3) 2. Patch clamp on human prostate cancer PC-3M and benign PNT2-C2 cells (FIG. 14)
(§4) Extracellular application of citrate induced inward current in both cell lines as described earlier. […] As in the case of oocytes, gluconate inhibition of citrate-induced current was irreversible. Repeated application of citrate on PC-3M cells has been previously shown not to cause any reduction in citrate current (Mycielska et al., 2005).

[6] = tested on: human prostate cancer PC-3M cells; assay: Patch clamp, citrate-induced current in PC-3M cells; assay type: cell-based
Description: as §2, §3, §4

[7] = biological target: T1, pmCiC (Homo sapiens, UniProt P53007); assay: pmCiC expressed in oocytes, two electrodes voltage clamp, citrate-induced current; assay type: cell-based
T1 construct: expressed in transfected cells
Description: FIG. 13. Oocytes were injected with either pmCiC cDNA (A) or water (B).
1. pmCiC expression in oocytes—two electrodes voltage clamp (FIG. 13)
We have expressed pmCiC in oocytes and induced citrate inward current by introducing citrate into extracellular media. […] This reduction was irreversible, as subsequent application of citrate after gluconate removal from the media was not able to restore the primary response.

[8] = tested on: mCiC mRNA; assay: RealTime PCR, mCiC mRNA expression in PC-3M cells; assay type: cell-based, human; details: media with citrate plus 5 mM gluconate vs citrate only
Description: (§5) FIG. 15. Metastatic human prostate cancer PC-3M cells were grown with extracellular citrate in the presence or absence of gluconate (5 mM). RealTime PCR was performed to assess changes to the mRNA expression level of pmCiC and mCiC.
(§6) 3. Effects of extracellular gluconate on pmCiC mRNA expression (FIG. 15)
(§7) We have studied the effect of gluconate in the extracellular media supplemented with citrate on the expression changes of pmCiC and mCiC as compared to the control conditions where the cells were incubated with extracellular citrate only. […] On the other hand, there was a significant mCiC mRNA increase, which would indicate increased mitochondrial activity to maintain intracellular citrate level.

[9] = tested on: pmCiC mRNA; assay: RealTime PCR, pmCiC mRNA expression in PC-3M cells; assay type: cell-based, human; details: media with citrate plus 5 mM gluconate vs citrate only
Description: as §5, §6, §7

T1 sequence (P53007 with tags, fused parts or gaps limits assumed): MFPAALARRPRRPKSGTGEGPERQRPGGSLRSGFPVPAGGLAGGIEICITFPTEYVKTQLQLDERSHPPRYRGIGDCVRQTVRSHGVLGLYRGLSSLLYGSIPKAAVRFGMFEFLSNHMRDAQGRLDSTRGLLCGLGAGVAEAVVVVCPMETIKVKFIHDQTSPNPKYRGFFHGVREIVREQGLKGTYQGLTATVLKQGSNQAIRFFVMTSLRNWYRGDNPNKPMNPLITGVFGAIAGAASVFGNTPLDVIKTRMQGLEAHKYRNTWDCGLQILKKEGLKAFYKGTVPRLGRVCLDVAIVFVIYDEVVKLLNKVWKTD

SMILES	cell cycle phase distribution [1]	lactate production (absolute amount of lactate per media volume) [2]	survival of cancer cells under stress conditions with extracellular citrate ([3]; 200 μM citrate)	ROS synthesis [4]	citrate-induced current in the presence of gluconate [5]	reversibility of gluconate inhibition of citrate-induced current ([6]; PC-3M cells, 10 mM gluconate)	citrate-induced current in the presence of gluconate ([6]; PC-3M cells, 10 mM gluconate, 10 mM citrate)	effect of repeated application of gluconate on citrate-induced current ([6]; repeated application)	reversibility of the reduction of citrate-induced current ([7]; citrate applied again after gluconate removal from the media)	citrate-induced current in the presence of gluconate ([7]; oocytes injected with pmCiC cDNA, gluconate applied extracellularly)	mCiC mRNA expression [8]	survival of cells in the presence of extracellular citrate and gluconate ([3]; 200 μM citrate, 48 h and 72 h)	cell survival with gluconate in the absence of extracellular citrate ([3]; no citrate)	pmCiC mRNA expression [9]
O=C(O)CC(O)(CC(=O)O)C(=O)O [citrate]	sharp increase in the G2/M phase	unaffected	increases survival	did not affect ROS synthesis										
O=C(O)[C@H](O)[C@@H](O)[C@H](O)[C@H](O)CO [gluconate]					decreased	irreversible	decreased	further citrate-induced current reduction	irreversible	significantly decreased	significantly increased	protective effect of extracellular citrate is abolished	no effect on cell survival	significantly increased
